According to ChEMBL document CHEMBL3885881, “DrugMatrix”:

Species: Rattus norvegicus
Assay: DrugMatrix - Regimen: Daily Repeat
Assay type: toxicity, organism-based, Sprague-Dawley
Set-up: regimen Daily Repeat, gender Male, age 6-8 weeks
Details: in vivo, po, route oral GAVAGE, vehicle 100 % WATER; for ABSOLUTE BASOPHIL / ABSOLUTE EOSINOPHIL / ABSOLUTE LYMPHOCYTE / ABSOLUTE MONOCYTE / ABSOLUTE SEGMENTED NEUTROPHIL / BASOPHIL / EOSINOPHIL / ERYTHROCYTE COUNT / HEMATOCRIT / HEMOGLOBIN / LEUKOCYTE COUNT / LYMPHOCYTE / MEAN CORPUSCULAR HEMOGLOBIN / MEAN CORPUSCULAR HEMOGLOBIN CONCENTRATION / MEAN CORPUSCULAR VOLUME / MONOCYTE / NEUTROPHIL / NUCLEATED RED BLOOD CELLS / PLATELET COUNT: tissue Blood; for ALANINE AMINOTRANSFERASE / ALBUMIN / ALKALINE PHOSPHATASE / ASPARTATE AMINOTRANSFERASE / BLOOD UREA NITROGEN / CARBON DIOXIDE / CHLORIDE / CHOLESTEROL / CREATINE PHOSPHOKINASE / CREATININE / GLUCOSE / LACTATE DEHYDROGENASE / LIPASE / PHOSPHORUS / POTASSIUM / SODIUM / TOTAL BILIRUBIN / TOTAL PROTEIN / URIC ACID: tissue Plasma
[1] = 0 mg/kg, 72 h, dose level Control, time 3 day
[2] = 0 mg/kg, 120 h, dose level Control, time 5 day
[3] = 20 mg/kg, 72 h, dose level Low, time 3 day

In the case of `C=CCC1(C(C)CCC)C(=O)NC(=O)NC1=O` (centres undefined) [SECOBARBITAL], the “ABSOLUTE BASOPHIL” value [1] is reported as 0 CELLS/uL, the “ABSOLUTE EOSINOPHIL” value [1] is reported as 32.5 CELLS/uL and the “ABSOLUTE LYMPHOCYTE” value [1] is reported as 9305.83 CELLS/uL. For the same compound, the “ABSOLUTE MONOCYTE” value [1] was 43.83 CELLS/uL, the “ABSOLUTE SEGMENTED NEUTROPHIL” value [1] was 817.83 CELLS/uL and the BASOPHIL [1] was 0%. For the same compound, the EOSINOPHIL [1] was 0.33%, the “ERYTHROCYTE COUNT” value [1] was 5.38 x10E6/uL and the HEMATOCRIT [1] was 33.63%. The HEMOGLOBIN [1] was 13.17 G/DL, the “LEUKOCYTE COUNT” value [1] was 10.2 x10E3/uL and the LYMPHOCYTE [1] was 91.17%. For the same compound, the “MEAN CORPUSCULAR HEMOGLOBIN” value [1] was 24.5 pg, the “MEAN CORPUSCULAR HEMOGLOBIN CONCENTRATION” value [1] was 39.13 G/DL and the “MEAN CORPUSCULAR VOLUME” value [1] was 62.53 fL. The MONOCYTE [1] was 0.5%, the NEUTROPHIL [1] was 8% and the “NUCLEATED RED BLOOD CELLS” value [1] was 0.17 /100WBC. For the same compound, the “PLATELET COUNT” value [1] was 858 x10E3/uL, the “ALANINE AMINOTRANSFERASE” value [1] was 55.67 u/L and the ALBUMIN [1] was 4.07 G/DL. The “ALKALINE PHOSPHATASE” value [1] was 337 u/L, the “ASPARTATE AMINOTRANSFERASE” value [1] was 84 u/L and the “BLOOD UREA NITROGEN” value [1] was 13.17 mg/dL. For the same compound, the “CARBON DIOXIDE” value [1] was 34.17 mmol/L, the CHLORIDE [1] was 99.33 MEQ/L and the CHOLESTEROL [1] was 78.83 mg/dL. For the same compound, the “CREATINE PHOSPHOKINASE” value [1] was 576.83 u/L, the CREATININE [1] was 0.17 mg/dL and the GLUCOSE [1] was 152.67 mg/dL. The “LACTATE DEHYDROGENASE” value [1] was 147.83 u/L, the LIPASE [1] was 9.5 u/L and the PHOSPHORUS [1] was 10.78 mg/dL. The POTASSIUM [1] was 6.34 MEQ/L, the SODIUM [1] was 144.12 MEQ/L and the “TOTAL BILIRUBIN” value [1] was 0.18 mg/dL. For the same compound, the “TOTAL PROTEIN” value [1] was 6.08 G/DL, the “URIC ACID” value [1] was 0.65 mg/dL and the “ABSOLUTE BASOPHIL” value [2] was 0 CELLS/uL. For the same compound, the “ABSOLUTE EOSINOPHIL” value [2] was 31.17 CELLS/uL, the “ABSOLUTE LYMPHOCYTE” value [2] was 7918.33 CELLS/uL and the “ABSOLUTE MONOCYTE” value [2] was 58.33 CELLS/uL. For the same compound, the “ABSOLUTE SEGMENTED NEUTROPHIL” value [2] was 725.5 CELLS/uL, the BASOPHIL [2] was 0% and the EOSINOPHIL [2] was 0.33%. For the same compound, the “ERYTHROCYTE COUNT” value [2] was 5.32 x10E6/uL, the HEMATOCRIT [2] was 33.53% and the HEMOGLOBIN [2] was 13.17 G/DL. The “LEUKOCYTE COUNT” value [2] was 8.73 x10E3/uL, the LYMPHOCYTE [2] was 90.33% and the “MEAN CORPUSCULAR HEMOGLOBIN” value [2] was 24.82 pg. The “MEAN CORPUSCULAR HEMOGLOBIN CONCENTRATION” value [2] was 39.33 G/DL, the “MEAN CORPUSCULAR VOLUME” value [2] was 63.12 fL and the MONOCYTE [2] was 0.67%. For the same compound, the NEUTROPHIL [2] was 8.67%, the “NUCLEATED RED BLOOD CELLS” value [2] was 0 /100WBC and the “PLATELET COUNT” value [2] was 1144.83 x10E3/uL. The “ALANINE AMINOTRANSFERASE” value [2] was 60.5 u/L, the ALBUMIN [2] was 3.97 G/DL and the “ALKALINE PHOSPHATASE” value [2] was 343.17 u/L. For the same compound, the “ASPARTATE AMINOTRANSFERASE” value [2] was 80.83 u/L, the “BLOOD UREA NITROGEN” value [2] was 15 mg/dL and the “CARBON DIOXIDE” value [2] was 31 mmol/L. For the same compound, the CHLORIDE [2] was 99.75 MEQ/L, the CHOLESTEROL [2] was 71.5 mg/dL and the “CREATINE PHOSPHOKINASE” value [2] was 237.17 u/L. The CREATININE [2] was 0.17 mg/dL, the GLUCOSE [2] was 137 mg/dL and the “LACTATE DEHYDROGENASE” value [2] was 146.17 u/L. It also gave an LIPASE [2] of 11.5 u/L, a PHOSPHORUS [2] of 10.13 mg/dL and a POTASSIUM [2] of 6 MEQ/L. For the same compound, the SODIUM [2] was 145 MEQ/L, the “TOTAL BILIRUBIN” value [2] was 0.13 mg/dL and the “TOTAL PROTEIN” value [2] was 5.82 G/DL. For the same compound, the “URIC ACID” value [2] was 0.62 mg/dL, the “ABSOLUTE BASOPHIL” value [3] was 0 CELLS/uL and the “ABSOLUTE EOSINOPHIL” value [3] was 51.33 CELLS/uL. The “ABSOLUTE LYMPHOCYTE” value [3] was 9158 CELLS/uL, the “ABSOLUTE MONOCYTE” value [3] was 51.33 CELLS/uL and the “ABSOLUTE SEGMENTED NEUTROPHIL” value [3] was 572.67 CELLS/uL. The BASOPHIL [3] was 0%, the EOSINOPHIL [3] was 0.67% and the “ERYTHROCYTE COUNT” value [3] was 5.3 x10E6/uL. For the same compound, the HEMATOCRIT [3] was 33.23%, the HEMOGLOBIN [3] was 12.87 G/DL and the “LEUKOCYTE COUNT” value [3] was 9.83 x10E3/uL. For the same compound, the LYMPHOCYTE [3] was 93%, the “MEAN CORPUSCULAR HEMOGLOBIN” value [3] was 24.27 pg and the “MEAN CORPUSCULAR HEMOGLOBIN CONCENTRATION” value [3] was 38.7 G/DL. The “MEAN CORPUSCULAR VOLUME” value [3] was 62.83 fL, the MONOCYTE [3] was 0.67% and the NEUTROPHIL [3] was 5.67%. For the same compound, the “NUCLEATED RED BLOOD CELLS” value [3] was 0 /100WBC, the “PLATELET COUNT” value [3] was 930.33 x10E3/uL and the “ALANINE AMINOTRANSFERASE” value [3] was 63 u/L. For the same compound, the ALBUMIN [3] was 4.2 G/DL, the “ALKALINE PHOSPHATASE” value [3] was 397.67 u/L and the “ASPARTATE AMINOTRANSFERASE” value [3] was 98.33 u/L. The “BLOOD UREA NITROGEN” value [3] was 13.33 mg/dL, the “CARBON DIOXIDE” value [3] was 35 mmol/L and the CHLORIDE [3] was 99 MEQ/L. For the same compound, the CHOLESTEROL [3] was 83.33 mg/dL, the “CREATINE PHOSPHOKINASE” value [3] was 496 u/L and the CREATININE [3] was 0.16 mg/dL. The GLUCOSE [3] was 140.67 mg/dL, the “LACTATE DEHYDROGENASE” value [3] was 160.33 u/L and the LIPASE [3] was 9.67 u/L. The PHOSPHORUS [3] was 11.03 mg/dL, the POTASSIUM [3] was 6.51 MEQ/L and the SODIUM [3] was 143.6 MEQ/L. For the same compound, the “TOTAL BILIRUBIN” value [3] was 0.2 mg/dL, the “TOTAL PROTEIN” value [3] was 6.1 G/DL and the “URIC ACID” value [3] was 0.83 mg/dL.
